Patent US10869875B2, “Oxysterols and Hedgehog signaling” (MAX BIOPHARMA, INC., priority 2015, dated 2020)

Experiments:
[1] = system: Hedgehog target gene Gli1; assay: Expression of Hedgehog target gene Gli1 in NIH3T3 cells (quantitative RT-PCR); format: cell-based; conditions: for Gli1 gene expression relative to CM only / Hedgehog signaling (Gli1 gene expression) compared to the control / gene expression of the Hedgehog target gene Gli1 / Hedgehog signaling (Gli1 gene expression): NIH3T3 cells; for Hedgehog signaling (Gli1 gene expression) compared to the control: without CM; for gene expression of the Hedgehog target gene Gli1: in CM, 5 μM and 10 μM; for gene expression of the Hedgehog target gene Gli1 / Hedgehog signaling (Gli1 gene expression): FIG. 7; for Hedgehog signaling (Gli1 gene expression): in the absence of CM
Protocol: The compounds described herein were tested on cell cultures to assess their effects on Hedgehog target genes PTCH and Gli1. Conditioned medium (CM) was collected from CAPAN-1 human pancreatic tumor cells grown to confluence in DMEM containing 10%0/fetal bovine serium (FBS) and contains Hh proteins that activate the Hh pathway in cells receiving the CM. After 7 days of incubation of confluent cells with the described medium, CM was collected, spun for 5 minutes at 1800 rpm to remove dead cells and debris, and then frozen at −80° C. For treating cells, CM was thawed and diluted 1:2 to 1:6 with DMEM containing 5% FBS. NIH3T3 cells, HepG2 and SUFU−/−MEF cells were cultured in 12-well plates with DMEM containing 10% FBS. The cells were then treated with DMEM containing 5% FBS or CM in the presence or absence of the compounds prepared in DMSO when they reach confluence. Quantitative RT-PCR was then performed according to the following approach. After 72 to 96 hours of the treatments, the cells were lysed and subjected to RNA extraction with RNease Plus Min kit (Qiagen). A portion of RNA from each well was subjected to Reverse Transcription (RT) using iScript Reverse Transcription Supermix (BioRad). QPCR was performed to test the expression of Hh target genes PTCH and Gli1 using IQ SYBR Green Supermix (BioRad).

[2] = system: connective tissue growth factor (CTGF); assay: TGFβ1 induced expression of CTGF in NIH3T3 cells (Q-RT-PCR); format: cell-based; conditions: 10 uM, recombinant human TGFβ1 at 20 ng/ml, 48 hours, FIG. 8
Protocol: NIH3T3 cells were treated with recombinant human TGFβ1 at 20 ng/ml in the absence or presence of compound 21 at 10 uM. After 48 hours, RNA was extracted and analyzed by Q-RT-PCR for the expression of connective tissue growth factor (CTGF), a tumorigenic gene.

[3] = 10 μM, in the presence of CM, FIG. 6, result in words

Compound	Hedgehog signaling (Gli1 gene expression) compared to the control ([1]; 10 μM, FIG. 6)	gene expression of the Hedgehog target gene Gli1 [1]	Hedgehog signaling (Gli1 gene expression) [1]	Gli1 gene expression relative to CM only [1, 3]	further results
C[C@]12CC[C@H]3[C@@H](CC=C4C[C@@H](O)CC[C@@]43C)[C@@H]1CC[C@@H]2[C@@](C)(O)CCc1ccc(F)cc1 [Oxy45, reference compound]	stimulated Hedgehog signaling	–	–	–	Gli1 gene expression relative to CM only ([1]; 5 μM, in the presence of conditioned medium (CM), FIG. 6): more than 2 fold; Gli1 gene expression relative to CM only ([1]; 10 μM, in the presence of conditioned medium (CM), FIG. 6): more than 2 fold
C[C@]12CC[C@H]3[C@@H](CC=C4C[C@@H](O)CC[C@@]43C)[C@@H]1CC[C@@H]2[C@@](C)(O)CCc1cccnc1 [Oxy43, reference compound]	–	greatly increased	stimulated Hedgehog signaling	–	–
C[C@]12CC[C@H]3[C@@H](CC=C4C[C@@H](O)CC[C@@]43C)[C@@H]1CC[C@@H]2[C@](C)(O)CCc1cccnc1 [compound 21, (3S,8S,9S,10R,13S,14S,17S)-17-((R)-2-hydroxy-4-(pyridin-3-yl)butan-2-yl)-10,13-dimethyl-2,3,4,7,8,9,10,11,12,13,14,15,16,17-tetradecahydro-1H-cyclopenta[a]phenanthren-3-ol]	–	decreased	did not	–	TGFβ1 induced expression of CTGF [2]: inhibited
C[C@]12CC[C@H]3[C@@H](CC=C4C[C@@H](O)CC[C@@]43C)[C@@H]1CC[C@@H]2[C@](C)(O)CCc1ccc(F)cc1 [compound 4, (3S,8S,9S,10R,13S,14S,17S)-17-((R)-4-(4-fluorophenyl)-2-hydroxybutan-2-yl)-10,13-dimethyl-2,3,4,7,89,10,11,12,13,14,15,16,17-tetradecahydro-1H-cyclopenta[a]phenanthren-3-ol]	did not show this effect	–	–	greatly decreased	–
C[C@]12CC[C@H](O)C[C@@H]1CC[C@@H]1[C@@H]2CC[C@@]2(C)[C@H]1CC[C@@H]2[C@](C)(O)CCc1ccc(F)cc1 [compound 6, (3S,5S,8R,9S,10S,13S,14S,17S)-17-((R)-4-(4-fluorophenyl)-2-hydroxybutan-2-yl)-10,13-dimethylhexadecahydro-1H-cyclopenta[a]phenanthren-3-ol]	did not show this effect	–	–	greatly decreased	Gli1 gene expression relative to CM only ([1]; 5 μM, in the presence of CM, FIG. 6, result in words): greatly decreased; inhibition of Gli1 expression vs. compound 4 ([1]; comparison with compound 4 (C5-C6 double bond, C20 R-stereochemistry), FIG. 1): increased; inhibition of Gli1 expression vs. compound 18 ([1]; comparison with compound 18 (C20 S-stereochemistry, C5-C6 single bond), FIGS. 1 and 3): increased
